# Laboratory results: US5661182A, “Method for lowering oxygen affinity of hemoglobin in redcell suspensions, in whole blood and in vivo” (Virginia Commonwealth University, priority 1995, dated 1997)
# Entries after “also recorded” stand apart in the source; their conditions may differ.
# Legend:
# [1] = target: HbA (normal adult hemoglobin) (Homo sapiens, UniProt P68871+P69905); assay: Oxygen equilibrium of isolated human Hb solutions (HbA p50); type: biochemical; conditions: human Hb solution; for p50 shift at increasing chloride concentration: 0.5 mM, chloride 0-400 mM; for HbA(p50): effector 0.5 mM, pH 7.2, 100 mM NaCl, 25 °C
# Excerpt: (§1) L3,5 and L3,4,5 were provided by Dr. Lalezari (Montefiore Hospital, New York); RSR-4 [2-[4-[[(3,5-dichloroanilino)carbonyl]methyl]phenoxy]-2-methylpropionic acid]and RSR13 [2-4-[[(3,5- dimethylanilino)carbonyl]methyl]phenoxy]-2-methylpropionic acid] have been synthesized following the procedure described in Randad et al. (J. Med. Chem. 34,752 (1991)). Human serum albumin (HSA), bovine serum albumin (BSA) and 4,4'diisothiocyanatostilbene-2,2'-disulfonate (DIDS) were purchased from Sigma (St. Louis, Mo.). Due to their low solubility in aqueous buffer, 10 mM stock solutions of the compounds were prepared in a slight exccess of sodium bicarbonate and back-titrated to pH 7.4. For example, RSR-4 or RSR-13 was dissolved at 60° C. in a 140 mM NaCl and 50 mM bis-Tris buffer at room temperature upon progressive addition of NaHCO3 to obtain 10 mM stock solutions. The pH was carefully adjusted to 7.4 after complete solubilization and before use of the solutions. Fresh solutions were prepared each week. Stock solutions of DIDS (1 mM) were prepared, in the dark, on the day of the experiments in a pH 7.4 buffer. Human serum albumin (defatted HSA) and bovine serum albumin (BSA) were prepared freshly as 1 mM stock solutions, pH 7.4. Equilibrium Measurements. The allosteric modulation of the effectors on freshly prepared solutions of hemoglobin or red cell suspensions was measured by the change in p50, the partial pressure of oxygen for half-saturation. Oxygen equilibrium curves (OEC) were carried out with the Hemox analyzer (TCS, Southampton, Pa.) under the following conditions: pH 7.4, 140 mM NaCl and 50 mM bis-Tris buffer at 37° C. In all experiments, the concentration of hemoglobin in the red cell suspensions was 20-25 μM hemoglobin tetramer (Hb4) as measured by Drabkin's method (cyanomethemoglobin) at the end of each recording. The final concentration of the allosteric effector in the cuvette was 0.5 mM, resulting in an effector/Hb4 ratio of 20 in the absence of albumin. OEC were also made in the same buffer containing 12.5, 25, 50, and 100 μM HSA (for human red cell suspensions) or BSA (for bovine cell suspensions). The serum albumin experiments were carried out with traces of an antifoaming agent. This agent has no deleterious effect on the red cell suspensions. The molar ratio of albumin to tetrameric hemoglobin was varied from 0.5 (at 12.5 μM HSA) to 4 (at 100 μM HSA); in whole blood this ratio is approximately 0.3 (0.7 mM albumin plus plasma proteins/2.25 mM Hb4). Therefore, the concentration of albumin used in the present studies was always larger relative to tetrameric hemoglobin than that found in whole blood.
# Bovine Red Cell Studies. […]
# [2] = target: hemoglobin in red cell suspensions (Homo sapiens, UniProt P68871+P69905); assay: Allosteric effector activity in the presence of serum albumin in buffered red cell suspensions (FIG. 3); type: cell-based; conditions: for effector activity in the presence of serum albumin: FIG. 3, effector 0.5 mM (L3,4,5 0.25 mM)
# Excerpt: as §1, with “OEC were also made in the same buffer containing 12.5, 25, 50, and 100 μM HSA (for human red cell suspensions) or BSA (for bovine cell suspensions). The serum albumin experiments were carried out with traces of an antifoaming agent. This agent has no deleterious effect on the red cell suspensions. The molar ratio of albumin to tetrameric hemoglobin was varied from 0.5 (at 12.5 μM HSA) to 4 (at 100 μM HSA); in whole blood this ratio is approximately 0.3 (0.7 mM albumin plus plasma proteins/2.25 mM Hb4). Therefore, the concentration of albumin used in the present studies was always larger relative to tetrameric hemoglobin than that found in whole blood.” left out
# human red cells = assay: Hemolysis of human red cells in vitro; type: cell-based
# deoxyhemoglobin = deoxyhemoglobin (Homo sapiens, UniProt P68871+P69905); assay: X-ray crystallographic studies with deoxyhemoglobin; type: binding
# Method: X-ray Crystallographic Studies. Hemoglobin for the crystal studies was prepared from human blood, and T-state deoxy crystals were obtained from ammonium sulfate solutions. RSR-4 or RSR-13 (2 effectors/I Hb) was dissolved in a slight excess of sodium bicarbonate to facilitate dissolution and was added to a 6 g % solution of deoxy-Hb in the glove box. A 1 g % Hb RSR-4 or RSR-13 solution was added to each crystallization tube. Crystals grew in approximately 1 week. X-ray data were collected with Friedel pairs using ω scans on a Rigaku AFC5R diffractometer equipped with a rotating anode and a 60-cm long evacuated beam tunnel. The crystals with allosteric effectors were isomorphous with native deoxy-Hb: RSR-4, 63.2, 83.7, and 53.8 Å, 99.4°; RSR-13, 63.2, 83.6, and 53.7 Å, 99.5°. Data collection (RSR-4 to 2.4-Å and RSR-13 to 2.8-Å resolution) was controlled by TEXAN software from Molecular Structure Corp. (The Woodlands, Tex.). There was little radiation damage to crystals, and new crystals were mounted when standard reference reflection intensities fell by 10%. All data were corrected for radiation damage when appropriate. The R-factors for the Friedel pairs and derivatives vs. native were as follows: RSR-4 (2.4 Å), 14.6% and 18.9%, and RSR-13 (2.8 Å), 7.2% and 12.5%, respectively. The difference electron density maps were obtained using the Cambridge computer programs (CCP4). […] The allosteric effector molecules were well resolved and easily fit to the difference density.
SMILES,p50 shift at increasing chloride concentration [1],HbA(p50) [1] [mmHg],effector activity in the presence of serum albumin [2],hemolysis (human red cells),second symmetry-related pair of binding sites (deoxyhemoglobin; near Arg 104β),"allosteric effector activity ([2]; 0.5 mM effector, in the presence of 50 μM albumin)",binding site in deoxyhemoglobin crystal (deoxyhemoglobin)
"CC(C)(Oc1ccc(CC(=O)Nc2cc(Cl)cc(Cl)c2)cc1)C(=O)O [RSR-4, 2-[4-[[(3,5-dichloroanilino)carbonyl]methyl]phenoxy]-2-methylpropionic acid]",identical at all chloride concentrations,35.5,"greater than L3,5 and L3,4,5 at all serum albumin/Hb ratios studied",No hemolysis,,,
"CC(C)(Oc1ccc(NC(=O)Nc2cc(Cl)cc(Cl)c2)cc1)C(=O)O [L3,5, reference compound]",identical at all chloride concentrations,47,,,have a second symmetry-related pair of binding sites near Arg 104β,,
Cc1cc(C)cc(NC(=O)Cc2ccc(OC(C)(C)C(=O)O)cc2)c1 [RSR-13],,,practically unaffected by serum albumin; also recorded: by far the least affected by serum albumin inhibition,,,greater than 90%,bind in the central water cavity in a conformation identical to that found for RSR-4
